Measured values as given in PubChem BioAssay AID256 (DTP/NCI, 2004).
Several values for one entry are separate records, joined by “and”; a condition that tells them apart may be missing. Identical values can stand only once. Inconclusive results and toxic doses are left out.

Test system: CD2F1 mice, L1210 leukemia ip, survival T/C
Test: NCI In Vivo Anticancer Drug Screen. Data for tumor model L1210 Leukemia (intraperitoneal) in CD2F1 (CDF1) mice
Conditions: endpoint: mean survival time, higher = longer survival
Method in brief: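 Read-out first: treated-group measurement over vehicle-control measurement, expressed as a ratio. Animals bore a transplanted tumor line and were dosed with compound or vehicle.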

[1] = dose: 100.0 mg/kg/injection, schedule: Q01DX009 (ip), vehicle: saline with Tween-80
[2] = dose: 200.0 mg/kg/injection, schedule: Q01DX009 (ip), vehicle: saline with Tween-80
[3] = dose: 400.0 mg/kg/injection, schedule: Q01DX009 (ip), vehicle: saline with Tween-80
[4] = dose: 25.0 mg/kg/injection, schedule: Q01DX009 (ip), vehicle: saline
[5] = dose: 50.0 mg/kg/injection, schedule: Q01DX009 (ip), vehicle: saline
[6] = dose: 100.0 mg/kg/injection, schedule: Q01DX009 (ip), vehicle: saline
[7] = dose: 200.0 mg/kg/injection, schedule: Q01DX009 (ip), vehicle: saline
[8] = dose: 100.0 mg/kg/injection, schedule: Q04DX003 (ip), vehicle: saline with Tween-80
[9] = dose: 200.0 mg/kg/injection, schedule: Q04DX003 (ip), vehicle: saline with Tween-80
[10] = dose: 400.0 mg/kg/injection, schedule: Q04DX003 (ip), vehicle: saline with Tween-80
[11] = dose: 50.0 mg/kg/injection, schedule: Q01DX009 (ip), vehicle: saline with Tween-80
[12] = dose: 50.0 mg/kg/injection, schedule: Q04DX002 (ip), vehicle: saline with Tween-80
[13] = dose: 100.0 mg/kg/injection, schedule: Q04DX002 (ip), vehicle: saline with Tween-80
[14] = dose: 200.0 mg/kg/injection, schedule: Q04DX002 (ip), vehicle: saline with Tween-80
[15] = dose: 400.0 mg/kg/injection, schedule: Q04DX002 (ip), vehicle: saline with Tween-80
[16] = dose: 100.0 mg/kg/injection, schedule: Q04DX003 (ip), vehicle: saline
[17] = dose: 200.0 mg/kg/injection, schedule: Q04DX003 (ip), vehicle: saline
[18] = dose: 400.0 mg/kg/injection, schedule: Q04DX003 (ip), vehicle: saline
[19] = dose: 100.0 mg/kg/injection, schedule: Q01DX001 (ip), vehicle: saline with Tween-80
[20] = dose: 200.0 mg/kg/injection, schedule: Q01DX001 (ip), vehicle: saline with Tween-80
[21] = dose: 400.0 mg/kg/injection, schedule: Q01DX001 (ip), vehicle: saline with Tween-80

NC(=O)CNC1=C(N2CC2)C(=O)C(NCC(N)=O)=C(N2CC2)C1=O
T/C (dose: 5.0 mg/kg/injection, schedule: Q01DX009 (ip), vehicle: saline): 172 % of control
T/C (dose: 10.0 mg/kg/injection, schedule: Q01DX009 (ip), vehicle: saline): 180 % of control and 192 % of control
T/C (dose: 15.0 mg/kg/injection, schedule: Q01DX009 (ip), vehicle: saline): 91 % of control

NC(=O)NC1CCCC1
T/C [1]: 107 % of control
T/C [2]: 107 % of control
T/C [3]: 107 % of control

COC1=C(C)C(=O)C2=C(C1=O)C(COC(N)=O)C(=O)C1NC1CN2C (stereo not given)
T/C (dose: 4.7 mg/kg/injection, schedule: Q01DX001 (ip), vehicle: carboxymethylcellulose (CMC)): 110 % of control

CN(C)C(=O)c1cccc(NC(=O)NCc2cccc(N3C(N)=NC(N)=NC3(C)C)c2)c1
T/C [4]: 94 % of control
T/C [5]: 95 % of control

O=C(O)C(CSC(c1ccccc1)(c1ccccc1)c1ccccc1)N=Cc1cccs1 (stereo not given)
T/C (dose: 12.5 mg/kg/injection, schedule: Q01DX009 (ip), vehicle: saline): 109 % of control
T/C (dose: 12.5 mg/kg/injection, schedule: Q01DX009 (ip), vehicle: suspension in saline): 113 % of control
T/C (dose: 25.0 mg/kg/injection, schedule: Q01DX009 (ip), vehicle: suspension in saline): 111 % of control
T/C (dose: 66.0 mg/kg/injection, schedule: Q01DX009 (ip), vehicle: saline): 163 % of control
T/C [1]: 172 % of control
T/C [6]: 163 % of control
T/C (dose: 100.0 mg/kg/injection, schedule: Q01DX009 (ip), vehicle: suspension in saline): 173 % of control
T/C [2]: 118 % of control
T/C [7]: 90 % of control
T/C (dose: 200.0 mg/kg/injection, schedule: Q01DX009 (ip), vehicle: suspension in saline): 94 % of control

CCCOc1ccc(/C=N\N=C\c2ccc(OCCC)cc2)cc1
T/C [8]: 89 % of control
T/C [9]: 89 % of control
T/C [10]: 91 % of control

C(C#CCN1CCOCC1)#CCN1CCOCC1
T/C (dose: 6.25 mg/kg/injection, schedule: Q01DX009 (ip), vehicle: Klucel (hydroxypropylcellulose) (HPC)): 96 % of control
T/C (dose: 12.5 mg/kg/injection, schedule: Q01DX009 (ip), vehicle: Klucel (hydroxypropylcellulose) (HPC)): 91 % of control
T/C (dose: 12.5 mg/kg/injection, schedule: Q01DX009 (ip), vehicle: saline with Tween-80): 95 % of control and 101 % of control
T/C (dose: 25.0 mg/kg/injection, schedule: Q01DX009 (ip), vehicle: Klucel (hydroxypropylcellulose) (HPC)): 100 % of control
T/C (dose: 25.0 mg/kg/injection, schedule: Q01DX009 (ip), vehicle: saline with Tween-80): 95 % of control and 98 % of control
T/C (dose: 50.0 mg/kg/injection, schedule: Q01DX009 (ip), vehicle: Klucel (hydroxypropylcellulose) (HPC)): 105 % of control
T/C [11]: 93 % of control and 95 % of control
T/C (dose: 100.0 mg/kg/injection, schedule: Q01DX009 (ip), vehicle: Klucel (hydroxypropylcellulose) (HPC)): 100 % of control
T/C [1]: 88 % of control and 90 % of control and 96 % of control
T/C [8]: 102 % of control
T/C (dose: 200.0 mg/kg/injection, schedule: Q01DX009 (ip), vehicle: Klucel (hydroxypropylcellulose) (HPC)): 91 % of control
T/C [2]: 95 % of control (2×) and 96 % of control
T/C [9]: 96 % of control
T/C (dose: 400.0 mg/kg/injection, schedule: Q01DX009 (ip), vehicle: Klucel (hydroxypropylcellulose) (HPC)): 97 % of control
T/C [3]: 95 % of control and 100 % of control and 101 % of control
T/C [10]: 102 % of control

CC(CC1CC=CCC1)C(=O)c1ccccc1 (stereo not given)
T/C [12]: 100 % of control
T/C [13]: 100 % of control
T/C [14]: 93 % of control
T/C [15]: 89 % of control

O=C(O)CCC(Cc1ccccc1)C(=O)O (stereo not given)
T/C [1]: 97 % of control
T/C [2]: 94 % of control
T/C [3]: 86 % of control

Cc1cc(Cl)ccc1NC(=O)SCc1ccc(Cl)cc1
T/C [11]: 95 % of control
T/C [1]: 100 % of control
T/C [2]: 103 % of control

Cc1ccc(O)c(/C=N/NC(N)=S)n1
T/C (dose: 12.5 mg/kg/injection, schedule: Q03HX024 (ip), vehicle: saline): 103 % of control
T/C (dose: 25.0 mg/kg/injection, schedule: Q03HX024 (ip), vehicle: saline): 102 % of control
T/C (dose: 50.0 mg/kg/injection, schedule: Q03HX024 (ip), vehicle: saline): 103 % of control

COc1ccc(NC(=O)Oc2ccc(SC)cc2)cc1
T/C [13]: 98 % of control
T/C [14]: 102 % of control
T/C [15]: 98 % of control

COC1C=CC=CC=C1
T/C (dose: 15.0 mg/kg/injection, schedule: Q04DX003 (ip), vehicle: saline sonified): 100 % of control
T/C (dose: 30.0 mg/kg/injection, schedule: Q04DX003 (ip), vehicle: saline sonified): 94 % of control
T/C (dose: 60.0 mg/kg/injection, schedule: Q04DX003 (ip), vehicle: saline sonified): 100 % of control

CCOCCc1ccncc1
T/C [16]: 101 % of control
T/C [17]: 104 % of control

CN(C)CCC[n+]1cc2c3ccccc3c(N)cc2c2ccccc21
T/C (dose: 3.13 mg/kg/injection, schedule: Q04DX003 (ip), vehicle: water): 103 % of control
T/C (dose: 6.25 mg/kg/injection, schedule: Q04DX003 (ip), vehicle: water): 106 % of control
T/C (dose: 12.5 mg/kg/injection, schedule: Q04DX003 (ip), vehicle: water): 103 % of control
T/C (dose: 25.0 mg/kg/injection, schedule: Q04DX003 (ip), vehicle: water): 109 % of control
T/C (dose: 50.0 mg/kg/injection, schedule: Q04DX003 (ip), vehicle: water): 109 % of control

ICC12CCC1(CI)COC2 (stereo not given)
T/C [16]: 96 % of control
T/C [17]: 96 % of control
T/C [18]: 93 % of control

Cc1c2c(cc3c1CCC1(C)C3CCC1C(C)CCC(C)C(C)C)CC(O)CC2 (stereo not given)
T/C (dose: 75.0 mg/kg/injection, schedule: Q01DX001 (ip), vehicle: saline with Tween-80): 92 % of control
T/C (dose: 150.0 mg/kg/injection, schedule: Q01DX001 (ip), vehicle: saline with Tween-80): 90 % of control
T/C (dose: 300.0 mg/kg/injection, schedule: Q01DX001 (ip), vehicle: saline with Tween-80): 90 % of control

CC(=O)OC1OC(CS[As](C)C)C(OC(C)=O)C(OC(C)=O)C1OC(C)=O (stereo not given)
T/C (dose: 50.0 mg/kg/injection, schedule: Q01DX009 (ip), vehicle: other): 96 % of control
T/C (dose: 100.0 mg/kg/injection, schedule: Q01DX009 (ip), vehicle: other): 108 % of control
T/C (dose: 200.0 mg/kg/injection, schedule: Q01DX009 (ip), vehicle: other): 93 % of control

C[S+](C)C
T/C [4]: 101 % of control
T/C [5]: 100 % of control
T/C [6]: 104 % of control
T/C [16]: 101 % of control
T/C [7]: 98 % of control
T/C [17]: 101 % of control
T/C (dose: 400.0 mg/kg/injection, schedule: Q01DX009 (ip), vehicle: saline): 102 % of control
T/C [18]: 104 % of control

C=Cn1ccnc1
T/C (dose: 25.0 mg/kg/injection, schedule: Q01DX001 (ip), vehicle: saline with Tween-80): 103 % of control
T/C (dose: 50.0 mg/kg/injection, schedule: Q01DX001 (ip), vehicle: saline with Tween-80): 100 % of control
T/C [19]: 114 % of control and 118 % of control
T/C [20]: 97 % of control
T/C [21]: 101 % of control

O=CNc1ccc(C(=O)O)cc1
T/C [8]: 94 % of control
T/C [9]: 94 % of control
T/C [10]: 100 % of control

O=[N+]([O-])c1ccc2[nH]ncc2c1
T/C [19]: 103 % of control
T/C [20]: 92 % of control
T/C [21]: 100 % of control

O=N[O-].O=N[O-].[Co].[NH2-].[NH2-].[NH2-].[NH2-]
T/C (dose: 25.0 mg/kg/injection, schedule: Q04DX002 (ip), vehicle: saline with Tween-80): 93 % of control
T/C [12]: 101 % of control
T/C [13]: 101 % of control
